Like-named read-outs stand apart in the source and are kept apart here.
System: female C57BL/6 mice
Type: in vivo, mouse
Method: Group housed female C57BL/6 mice were treated with a single injection of AGM-1470 (30 mg/kg, s.c.) and paired with male breeders at various times after treatment. Treatment groups are designated as the number of days between plugging and treatment. The 6 control groups are combined and expressed as the mean±SD. The number of matings in per group is listed below each labeled group.
The experiment was designed to detect how long before mating a single dose of AGM-1470 might be effective. Sexually mature female mice were treated with a single dose of AGM-1470 (30 mg/kg, s.c.) up to five days prior to mating [designated E(−5), E(−4), E(−3), E(−2), E(−1), or E0 with the date of plugging being E0]. For treatments on E(−5) through E(−1), group-housed female mice were injected with AGM-1470 and then individually paired with male breeders at varying times after injection. For E0 treatment, females were paired with males and then plugged females were injected. Pregnancies were monitored by maternal weights and allowed to go to term. The contraceptive efficacy of a single dose of AGM-1470 on each of these days, calculated by the percentage of matings resulting in any viable deliveries […]. The contraceptive efficacy of a single dose of AGM-1470 on each of these days, expressed as the percentage of matings resulting in viable deliveries is illustrated in FIG. 8.

CO[C@@H]1[C@H](OC(=O)NC(=O)CCl)CC[C@]2(CO2)[C@H]1[C@@]1(C)O[C@@H]1CC=C(C)C [AGM-1470, O-chloroacetylcarbamoyl fumagillol]
effect on live births (single dose 30 mg/kg s.c. on E0): completely block live births | effect on live births (single dose 30 mg/kg s.c. on E(-1)): completely block live births | reduction of percentage of animals with successful pregnancies (single dose 30 mg/kg s.c. on E(-2)): 80% | frequency of litters (single dose 30 mg/kg s.c. three to five days prior to mating): same frequency as controls | number of dead births relative to controls (single dose 30 mg/kg s.c., any time point E(-5) to E0): No differences | percentage of mated animals with viable births (single dose 30 mg/kg s.c., treatments on E0, E-1 and E-2 (FIG. 8)): inhibition of viable births

Reference: US6441027B1, “Method of regulating the female reproductive system through angiogenesis inhibitors” (Children's Medical Center Corporation, priority 1996, dated 2002)
